SMILES strings stand for the structures.

Data set [1] relates to LLC (Lewis Lung Carcinoma) cells. The experiment in a line: In vitro growth inhibition, LLC. The settings on record: mouse LLC. The data set is classed as cell-based. Here is the method: (§1) The K562, HL-60, MDA-MB231, and melanoma (CRL-11174) human cancer cell lines were purchased from ATCC (American Tissue Type Culture Collection, Manassas, Va., United States of America). HeLa, A549, Lewis Lung Carcinoma, MDA-MB231, and melanoma cells were grown in Dulbecco's Modified Eagle Medium (DMEM) (Hyclone, Logan, Utah, United States of America) supplemented with 10% fetal bovine serum (Hyclone, Logan, Utah, United States of America) and 50 μg/mL gentamicin sulfate (Invitrogen, Carlsbad, Calif., United States of America). The HL-60, K562, and Jurkat cell lines were grown in RPMI-1640 medium (Hyclone, Logan, Utah, United States of America) supplemented with 10% fetal bovine serum and 50 μg/mL gentamicin sulfate. […]
(§2) Cells were collected 48 hours post-treatment, and cell number and viability were determined by trypan blue exclusion. […]

For data set [2], the system named is MDA-MB231 breast adenocarcinoma cells. The experiment in a line: In vitro growth inhibition, MDA-MB231. The format is cell-based. The following applies: Homo sapiens, MDA-MB-231. How it is done:
as §1, §2

Data set [3] is described as follows: Toxicity studies, highest tolerated dose. The format is in vivo, mice. The settings on record: intraperitoneal (IP) injection in DMSO.
Data set [4] deals with MDA-MB231 human breast adenocarcinoma tumors. The experiment in a line: MDA-MB231 breast adenocarcinoma xenografts in Balb/c nude mice. The format is in vivo. The settings on record: 0.07 mg/g IP, three daily injections followed by three days off. How it is done:
FIG. 7B is a graph showing the effects of 3PO treatment on the growth of established MDA-MB231 breast adenocarcinoma tumor zenografts in Balb/c athymic mice. Tumors were measured daily using blunt end Vernier calipers, and mice with established tumors (130-190 mg) were blindly randomized into either a DMSO control group (•, n=14) or a 3PO treatment group (∘, n=13). Experimental mice were weighed and given intraperitoneal (i.p.) injections of either 50 μL DMSO or 0.07 mg/g 3PO in 50 μL DMSO according to a cyclical dosing regimen of three sequential daily injections followed by three off days for the duration of the study (14 days). Arrows (↓) represent control or 3PO administrations. […]
Exponentially growing MDA-MB231 and HL-60 cells were collected in appropriate medium, washed twice and resuspended in PBS at a concentration of 20×10^7 cells/mL. […] Body weight and tumor growth were monitored daily throughout the study. Tumor masses were determined by measurement with Vernier calipers using the formula: mass (mg)=[width (mm^2)×length (mm)]/2. […]
The first tumor model tested consisted of mouse Lewis Lung Carcinoma xenografts grown in C57/Blk6 mice. For this study, mice were given IP injections of either DMSO or the calculated dose of 1 once daily for the duration of the study (14 days). […]

Data set [5] relates to melanoma (CRL-11174) cells. The experiment in a line: In vitro growth inhibition, melanoma line. The data set is classed as cell-based. The settings on record: Homo sapiens. How it is done: as §1, §2
In the next data set the test system is Jurkat leukemia cells. The experiment in a line: In vitro growth inhibition, Jurkat. The format is cell-based. The following applies: Homo sapiens, 50% of vehicle control cell growth. Here is the method:
as §1, §2

The next data set has as its system HL-60 leukemia cells. The experiment in a line: In vitro growth inhibition, HL-60. The data set is classed as cell-based, human. The settings on record: Homo sapiens, 50% of vehicle control cell growth. How it is done: as §1, §2

One may read the IC50 as the concentration at which inhibition is half-maximal. For the compound `O=C(/C=C/c1cccnc1)c1ccncc1` [Compound 1, 3-(3-pyridinyl)-1-(4-pyridinyl)-2-propen-1-one], the IC50 came out at 19 µM in data set [1]; 4.7 µM in data set [2]; 15 µM in data set [5]; 1.4 µM with Jurkat leukemia cells; 4.5 µM in the data set with HL-60 leukemia cells. Besides, the “highest tolerated dose producing no phenotypic side effects” value in data set [3] stood at 0.07 mg/g. The “maximum inhibition of xenograft growth compared to DMSO controls” value in data set [4] is on record as 66%.

These data come from patent US8557823B2, “Family of PFKFB3 inhibitors with anti-neoplastic activities” (Advanced Cancer Therapeutics, LLC, priority 2007, dated 2013).
